From patent publication US20200121747A1, “COMPOSITION FOR PREVENTING OR TREATING ARTHRITIS COMPRISING HYDROQUINOIC ACID” (PUKYONG NATIONAL UNIVERSITY INDUSTRY-UNIVERSITY COOPERATION …, priority 2018, published 2020)

Experiment: Body weight change in rheumatoid arthritis (CIA) mice
Type: in vivo, DBA/1J mice
Details: arthritis mice treated with 10 mg and 20 mg of SHQA; measured weekly for 7 weeks; FIG. 4
Method: Eight weeks old male DBA/1J mice (Central Lab Animal Inc., Seoul, Korea) were raised for 1 week in an environment maintaining temperature (25±2° C.), humidity (55%) and 12 hour light and dark cycle. All experiments were carried out in accordance with the guidelines of the Korean National Institutes of Health Guide for the Care and Use of Laboratory Animals, and the animal testing procedure was approved by the Animal Ethics Committee of Pukyong National University (2015-12). Rheumatoid arthritis was induced in male DBA/1J mice. Type II collagen was emulsified (CFA; 2 mg/mL) in the same volume of complete Freund's adjuvant. On day 0, 100 μg of […] was injected intradermally into the lower tail portion of the DBA/1J mice to immunize. After 21 days, 100 μg of CII (IFA; 2 mg/mL) emulsified in the same volume of incomplete Freund's adjuvant in the lower tail portion of the mice was boosted by intradermal injection. On day 42, all mice were anesthetized with ether and sacrificed. Blood (plasma sample), spleen, liver and joint tissues were immediately removed and stored at −80° C. […]
For the control group without treatment, the arthritis animal group (CIA treatment group), and the treated group in which arthritis experimental animals were treated with 10 mg and 20 mg of SHQA, their body weights were measured weekly for 7 weeks. […]

CC(C)=CCC/C(=C/CC/C(C)=C/CC/C(C)=C/Cc1cc(O)cc(C)c1O)C(=O)O [SHQA, sargahydroquinoic acid]
change in body weight: no significant change in body weight
